Reference: paper PMC11219871, “Epigenetic-based differentiation therapy for Acute Myeloid Leukemia” (Nature Communications, 2024)
pIC50: −log10 of the molar value. Values joined by “and” are separate entries in the source; they are usually repeats but may differ in a detail not shown here. Identical values can stand only once. Like-named read-outs stand apart in the source and are kept apart here.

Key:
HDAC4 = biological target: T1, HDAC4 (Homo sapiens, UniProt P56524); test: HDAC assay (Eurofins); type: biochemical
T1 construct: purchased Eurofins (contracted assay service)
T1 sequence (P56524 whole entry): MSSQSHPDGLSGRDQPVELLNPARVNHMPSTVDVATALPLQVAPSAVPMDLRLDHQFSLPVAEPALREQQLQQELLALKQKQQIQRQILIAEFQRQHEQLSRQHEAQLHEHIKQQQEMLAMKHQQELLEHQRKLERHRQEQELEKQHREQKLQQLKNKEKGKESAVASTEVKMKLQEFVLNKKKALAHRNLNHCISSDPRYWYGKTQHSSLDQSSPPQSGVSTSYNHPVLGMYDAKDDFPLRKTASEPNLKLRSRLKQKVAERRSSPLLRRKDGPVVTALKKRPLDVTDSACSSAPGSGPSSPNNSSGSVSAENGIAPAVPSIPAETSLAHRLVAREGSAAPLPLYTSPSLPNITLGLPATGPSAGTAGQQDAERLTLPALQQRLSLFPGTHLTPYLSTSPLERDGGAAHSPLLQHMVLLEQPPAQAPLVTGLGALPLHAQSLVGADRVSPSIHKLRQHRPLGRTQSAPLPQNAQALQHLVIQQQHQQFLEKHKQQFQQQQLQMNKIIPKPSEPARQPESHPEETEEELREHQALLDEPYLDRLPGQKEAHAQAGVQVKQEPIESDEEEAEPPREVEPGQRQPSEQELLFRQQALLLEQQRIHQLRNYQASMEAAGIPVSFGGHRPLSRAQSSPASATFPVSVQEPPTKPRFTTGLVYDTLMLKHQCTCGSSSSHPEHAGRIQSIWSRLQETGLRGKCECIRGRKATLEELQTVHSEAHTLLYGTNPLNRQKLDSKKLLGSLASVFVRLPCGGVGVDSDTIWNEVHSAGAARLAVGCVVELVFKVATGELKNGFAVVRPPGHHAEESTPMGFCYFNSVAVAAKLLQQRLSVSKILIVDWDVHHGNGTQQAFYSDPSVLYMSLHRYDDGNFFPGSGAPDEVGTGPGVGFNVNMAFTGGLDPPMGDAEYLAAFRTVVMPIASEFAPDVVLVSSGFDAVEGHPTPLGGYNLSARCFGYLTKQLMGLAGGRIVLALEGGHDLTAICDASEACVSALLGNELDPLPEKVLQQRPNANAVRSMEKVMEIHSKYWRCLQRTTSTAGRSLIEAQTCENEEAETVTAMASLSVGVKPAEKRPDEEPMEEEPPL

[1] = Liver microsomal stability; type: in vitro ADME; settings: read-out: Liver Microsomal Stability Estimation T1/2
Description: This study was conducted at Wuxi (http://www.wuxi.com/). […] A 5-μL aliquot of stock solution of test compound (10 mM; 100% DMSO) was diluted in 495 μL of […] (final concentration of 100 μM, 99% MeOH). Then, 50 μL of this intermediate solution was diluted in 450 μL of 100 mM potassium phosphate buffer to a concentration of 10 μM (working solution, 9.9% MeOH). The β-nicotinamide adenine dinucleotide phosphate reduced form (NADPH) regenerating system also contained tetrasodium salt, NADPH•4Na (Sigma, Cat.# No.00616). Human liver microsomes were obtained from Corning (Cat.#452117), and C57 mouse liver microsomes from Xenotech (Cat.#M5000), at a final concentration of 0.5 mg protein/mL. A volume of 10 μL of working solution of test and control compounds (testosterone, diclofenac and propafenone) and 80 μL/well microsome solution were added to a 96-well plate and incubated for 10 min at 37 °C. The reaction was started by the addition of 10 μL of NADPH regenerating system and stopped by the addition of 300 μL of stop solution (acetonitrile at 4 °C, including 100 ng/mL tolbutamide and 100 ng/mL of labetalol as internal standard) at different incubation times (0, 5, 10, 20, 30, and 60 min). Then, the samples were shaken for 10 min and centrifuged at 1699 g for 20 min at 4 °C. An aliquot of supernatant (100 μL) was transferred from each well and mixed with 300 μL of ultra-pure water before submitting to LC-MS/MS analysis. Concentrations of test and control compounds were quantified by LC-MS/MS using a peak area ratio of analyte/internal standard, and the percent loss of the parent compound was calculated at each time point to determine the half-life (t1/2, min). Experiments were performed in duplicate.

CACO-2 permeability = type: in vitro ADME; settings: human
Description: This study was conducted at Wuxi (http://www.wuxi.com/). Caco-2 cells (ATCC) were seeded onto polyethylene membranes in 96-well BD insert plates at 1 × 10^5 cells/cm^2, and the medium was changed every 4 days until the 21st to 28th day for confluent cell monolayer formation. Test compounds were diluted with transport buffer (HBSS with 10 mM HEPES at pH 7.4 ± 0.05) to a concentration of 2 µM (final DMSO concentration adjusted to <1%) and tested bi-directionally to investigate P-glycoprotein-mediated efflux in duplicate. Controls: digoxin (10 μM, bi-directionally), nanodolol and metoprolol (2 μM, apical, A, to basolateral, B). The permeation was assessed over a 120-minute incubation at 37 °C ± 1 °C and 5% CO2 at saturated humidity without shaking. Samples were mixed with acetonitrile containing internal standard and centrifuged at 1520 g for 10 min. Then, 100-μL aliquots of supernatant solutions were diluted with 100 μL of pure water. Concentrations of test and control compounds in starting solution, donor solution, and receiver solution were quantified by LC-MS/MS using a peak area ratio of analyte to internal standard. Permeation of lucifer yellow through the monolayer was measured to evaluate the cellular integrity. The results are the average of two biological replicates.

[2] = tested on: ML-2 xenograft in BALB/cA Rag2-/-γc-/- mice; test: Subcutaneous xenograft model (tumor volume, CD11b q-PCR, H3Ac, body weight); type: in vivo, mouse; settings: for Tumor volume: ML-2 subcutaneous xenograft, individual mice (Fig 3B); for body weight of mice: subcutaneous ML-2 AML mouse model, individual mice
Description: (§1) The subcutaneous xenograft models of ML-2 and MV4-11 derived cells, 5 × 10^6 and 10 × 10^6 cells, respectively, diluted in 100 µL of saline solution were subcutaneously inoculated in the back left flank of female BALB/cA Rag2^−/−γc^−/− mice. When tumors became palpable, the mice were randomized into three groups: vehicle, CM-444 and CM-1758, (eight animals/group). Treatment with 10 mg/kg of CM-444 or CM-1758 i.p. was started 4 days after injection when all mice presented subcutaneous tumors and was administered for 5 consecutive days followed by 2 resting days over 3 weeks for the ML-2 model or daily for 2 weeks for the MV4-11 model. The control group received only 80% saline solution, 10% DMSO […] 10% Tween 20 (diluents of CM-444 and CM-1758). Tumor size was analyzed every 2–3 days using the following method: […], where D and d corresponded to the longest and shortest diameter, respectively. The maximal tumor size/burden permitted by the Animal Care and Ethics Committee of the University of Navarra is 2000 mm^3. This maximal tumor size/burden was not exceeded in any case. ML-2 and MV4-11 tumors were explanted for differentiation and global histone acetylation analysis. Histones were extracted, and a western blot of H3Ac was performed as described above. For the differentiation study, RNA was extracted, and q-PCR of CD11b was performed as described above (CD11b sequence primer can be found in Supplementary Table 10).

[3] = tested on: MV4-11 xenograft in BALB/cA Rag2-/-γc-/- mice; test: as above; type: in vivo, mouse; settings: for Tumor volume: MV4-11 subcutaneous xenograft, in mm³; for Tumor volume / body weight of mice: individual mice; for body weight of mice: subcutaneous MV4-11 AML mouse model
Description: as §1

[4] = tested on: MOLM-13 i.v. in BALB/cA Rag2-/-γc-/- mice; test: Intravenous xenograft model (survival, CD11b in blood, body weight); type: in vivo, mouse

## COc1cc2nc(-c3ccc(C)o3)cc(NCC3CCN(c4ncc(C(=O)NO)cn4)CC3)c2cc1OC [CM-444, 2-[4-[[[6,7-dimethoxy-2-(5-methyl-2-furyl)-4-quinolyl]amino]methyl]-1-piperidyl]pyrimidine-5-carbohydroxamic acid]
HDAC4
  pIC50: 7.21
HDAC4; 10 µM
  inhibition at 10 µM: 96%
[1]; C57, mouse liver microsomes
  half-life at 1 µM: 18.4 min
[1]; human liver microsomes
  half-life at 1 µM: 28.8 min
CACO-2 permeability; Caco-2, pH 7.4
  efflux ratio at 120 min, 2 µM: > 1050
CACO-2 permeability; Caco-2, pH 7.4, A to B
  Papp A→B at 120 min, 2 µM: < 0.01 ×10⁻⁶ cm/s
[2]; ML-2 s.c., 10 mg/kg i.p.
  CD11b expression in explanted tumors: significant increase in CD11b expression
  H3Ac levels in tumors: increase in H3Ac levels
[2]; ML-2 s.c., 10 mg/kg i.p., 5 days on/2 off, 3 weeks
  tumor growth: inhibited tumor growth significantly
[2]; day 0, in mm³
  Tumor volume: 0
[2]; day 8
  Tumor volume: 50.29 and 0 (2×) and 44.4222 and 26.1593 and 17.7985 and 33.6927 and 34.1731
  body weight of mice: 23 and 21.7 (2×) and 22.6 and 22.9 and 19.8 and 23.2 and 21.8
[2]; day 11, in mm³
  Tumor volume: 57.5494 and 54.0642 and 29.9608 and 34.453 and 70.3613 and 12.6567 and 13.356 and 62.0802
[2]; day 13, in mm³
  Tumor volume: 71.0807 and 75.9644 and 34.9942 and 17.4964 and 64.0599 and 59.7475 and 31.61 and 81.1976
[2]; day 15, in mm³
  Tumor volume: 260.999 and 204.675 and 90.5639 and 88.4341 and 135.48 and 171.734 and 101.038 and 206.002
[2]; day 18, in mm³
  Tumor volume: 480.691 and 730.912 and 126.029 and 148.778 and 375.191 and 457.823 and 357.768 and 468.956
[2]; day 20, in mm³
  Tumor volume: 765.508 and 824.168 and 527.843 and 397.65 and 611.294 and 688.039 and 576.047 and 641.268
[2]; after in vivo treatment, subcutaneous ML-2 mouse model, western blot, individual tumors
  Relative H3Ac/H3 total levels: 1.215 and 1.184 and 2.112 and 1.745 and 1.414 and 2.588
[2]; day 4, in g (unit assumed)
  body weight of mice: 25.5 and 22.7 and 24.1 and 24.4 and 23.6 and 21.4 and 26.1 and 23.7
[2]; day 6, in g (unit assumed)
  body weight of mice: 24.2 and 22.1 and 23.5 and 23 and 22.4 and 20.6 and 24.7 and 22.8
[2]; day 11, in g (unit assumed)
  body weight of mice: 25 and 22 and 24 and 24.2 and 22.6 and 21.1 and 24.3 and 21.9
[2]; day 13, in g (unit assumed)
  body weight of mice: 24.5 and 21.9 and 23.2 and 22.6 and 22.9 and 21.2 and 24.7 and 22.3
[2]; day 15
  body weight of mice: 24.9 and 22.5 and 22.9 and 22.2 (2×) and 21.3 and 24.8 and 22.1
[2]; day 18, in g (unit assumed)
  body weight of mice: 24.7 and 23.2 and 23.6 and 22 and 23 and 21.6 and 24.9 and 23.5
[2]; day 20
  body weight of mice: 24.4 and 23.5 and 23.1 (2×) and 20.8 and 21.2 and 25.5 and 23.3
[2]; tumors of the subcutaneous ML-2 model, individual tumors (Fig 3C)
  CD11b expression from tumors measured by q-PCR: 4.258 log10 (2-ΔΔCt) and 6.115 log10 (2-ΔΔCt) and 1.258 log10 (2-ΔΔCt) and 2.581 log10 (2-ΔΔCt) and 3.258 log10 (2-ΔΔCt)
[3]; MV4-11 s.c., 10 mg/kg i.p.
  CD11b expression in explanted tumors: significant increase in CD11b expression
  H3Ac levels in tumors: increase in H3Ac levels
[3]; MV4-11 s.c., 10 mg/kg i.p. daily, 2 weeks
  tumor growth: very close to significance
[3]; day 0
  Tumor volume: 0
[3]; day 7
  Tumor volume: 3.193
  body weight of mice: 20.3 and 18.1 and 19.6 (2×) and 20.5 and 18.3 and 21.6 and 18.4 and 21 and 20.7
[3]; day 9
  Tumor volume: 111.805 and 139.808 and 128.905 and 58.5153 and 61.4614 and 71.8536 and 82.1349 and 57.0445 and 0 and 108.84
  body weight of mice: 20.7 (2×) and 19.1 (2×) and 20.2 and 19.2 and 20.4 (2×) and 18.9 and 20.6
[3]; day 12
  Tumor volume: 294.457 and 409.686 and 535.985 and 179.87 and 403.211 and 161.575 and 360.839 and 457.558 and 8.3776 and 264.463
  body weight of mice: 22.2 (2×) and 19.1 and 21.6 and 20 and 22.4 and 20.6 and 23 and 20.1 and 22.6
[3]; day 14
  Tumor volume: 459.841 and 410.79 and 840.745 and 257.398 and 607.597 and 355.301 and 487.51 and 302.43 and 18.6928 and 395.414
  body weight of mice: 22.1 (2×) and 19.1 and 20.3 and 22.6 (3×) and 20.9 and 23.1 and 19.5
[3]; after in vivo treatment, subcutaneous MV4-11 mouse model, western blot, individual tumors
  Relative H3Ac/H3 total levels: 0.9852 and 1.143 and 1.277 and 1.092 and 1.163 and 1.09
[3]; day 1
  body weight of mice: 21.9 and 20.2 and 23.1 and 24.4 (2×) and 23 and 20.9 and 24.3 and 21.3 and 23.6
[3]; day 5, in g (unit assumed)
  body weight of mice: 20.4 and 18.7 and 20.7 and 21.6 and 21.5 and 19 and 21.7 and 18.8 and 21.2 and 21
[3]; day 16
  body weight of mice: 21 (2×) and 19.6 and 22 and 21.9 and 20.1 and 24.8 and 20.6 and 22.3 (2×)
[3]; tumors of the subcutaneous MV4-11 model, q-PCR, individual tumors
  CD11b expression, log10 (2-ΔΔCt): 1.258 and 2.58 and 3.158 and 0.925
[4]; MOLM-13 i.v., 10 mg/kg i.p.
  CD11b in blood samples: significant induction of CD11b
[4]; blood samples of mice engrafted intravenously with MOLM-13 cells, individual mice
  CD11b (%): 49.5% and 13.9% and 12.3% and 14% and 28.6% and 15.1% and 19.3% and 15% and 42.6% and 31.9% and 18% and 12.6%
